Measured values from patent US20250304523A1, “COMBINED LACTATE AND KETONE BODY ESTERS FOR MEDICAL AND NUTRITIONAL USE” (Aarhus Universitet, priority 2022, published 2025).

How the values were obtained:
Format in all cases: in vivo
[1] = system: N-lactoyl-phenylalanine (Lac-Phe); test: Quantification of N-lactoyl-phenylalanine (Lac-Phe) in rat serum after oral administration (LC-MS/MS); settings: compared to baseline (internal control)
Protocol: As provided in example 21 with the difference that N-lactoyl-phenylalanine (Lac-Phe) was quantified using LC-MS/MS analyses.
LC-MS/MS analyses were carried out as follows: Forty μL rat plasma was diluted with 100 μL water in a 2 mL tube, added 115 μL methanol (Merck hypergrade) and 420 μL acetonitrile (Merck hypergrade), vortex mixed, incubated for 5 min at room temperature, and then centrifuged at 10,000×g for 5 min. Five hundred microliter supernatant was transferred to a 96-well plate (Eppendorf 1 mL deepwell), evaporated to dryness under a nitrogen gas flow at 30° C., and then reconstituted in 100 μL water with 0.1% formic acid. […]
The sample was introduced to the mass spectrometer through electrospray ionization in the negative mode with a capillary voltage of 2.2 kV and the source and desolvation temperatures were 150 and 500° C., and the nitrogen gas flows were 50 L/h (cone) and 800 L/h (desolvation). The analytes were detected in the multiple reaction monitoring mode with the following transitions (m/z) and cone voltage/collision energies (CV/CE), L-Lac-Phe (quantification ion m/z: 236.2>88.1, CV/CE: 25V/15 eV and qualifier ion m/z: 236.2>147.1, CV/CE: 25V/15 eV). […]

[2] = Quantification of BHB and lactate in rat serum after oral administration (LC-MS/MS); settings: compared to baseline (internal control), sampling until 180 minutes
Protocol: (§1) The diLaKe ester (formula II) is diluted in physiological saline solution (0.9% NaCl) and administered as a single bolus of 2 mL, per oral dose. The dose of 4500 mg/kg is based on a previous pilot series. Placebo animals receive a single bolus of 2 mL physiological saline solution (0.9% NaCl).
Male Sprague Dawley rats are kept for acclimatization at a constant temperature of 23° C., with a 12 h light-dark cycle and with unlimited access to food and water. All animal handling is in accordance with national guidelines in Denmark and the Guide for the Care and Use of Laboratory Animals^1 and all experiments conformed to Danish Law (Act. No. 1306 of 23 Nov. 2007).
The rats are randomly selected to receive either diLaKe or placebo.
Rats are anaesthetised in an induction chamber with 8% Sevoflurane (Sevorane®, AbbVIE A/S, Copenhagen, Denmark) mixed with oxygen saturated atmospheric air (flow: 2.0 L/min).
Upon achieved anaesthesia, the rats are intubated and connected to a mechanical ventilator (Ugo Basile 7025 rodent ventilator, Comerio, Varese, Italy) with an adjusted flow of 1.0 L/min with 3.5% Sevoflurane. Body temperature is kept at a constant 37° C.±1° C. with a temperature probe (UNO, Zevenaar, Holland). A PTFE coated flexible orogastric tube (Fuchigami, Japan) is placed and the rat is left for stabilization for 15 minutes.
After stabilization a baseline blood sample is collected from the rat tail vein before administration of diLaKe or placebo.
(§2) Following the baseline blood sample, a bolus of diLaKe solution or placebo is administered via the orogastric tube to the animals. […] Serum is collected and stored at −80° C. for further analysis.
The concentration of BHB and lactate will be determined in the blood samples isolated from the rats according to example 3. Rat serum isolated every 15 minutes for a 2 hours are analyzed. The quantification is done on LC-MS/MS using isotopically labeled internal standards (7).
The LaKe ester (formula XXII and XXIII) was diluted in physiological saline solution (0.9% NaCl) and administered as a single bolus of 2 mL, per oral dose. The dose of 4500 mg/kg was based on a previous pilot series (data not shown).
Male Sprague Dawley rats (300-350 g, Taconic, Ry, Denmark) were kept for acclimatization at a constant temperature of 23° C., with a 12 h light-dark cycle and with unlimited access to food and water. […]
Based on own experience and reports by other research groups, a sample size of n=8 was considered adequate to identify a treatment effect. All results are expressed as mean±SD unless otherwise stated. Differences in concentrations were analysed using two-way ANOVA with Bonferroni post hoc correction. […]

[3] = system: free fatty acids (FFA); test: Non-esterified free fatty acids in rat serum after oral administration (NEFA-HR (2) kit); settings: rats, compared to baseline (internal control), sampling until 180 minutes
Protocol: as §1, §2
The concentration of free-fatty acids (FFA) is determined in the blood samples isolated from the rats according to example 3. […]
Concentrations of non-esterified free fatty acids (NEFA) are measured using a NEFA-HR (2) kit (Wako, Chemicals Gmbh). Absorbance is measured by spectrometry (PHERAstar FS, BMG LABTECH, Ortenberg, Germany). […]
The concentration of free-fatty acids (FFA) was determined in the blood samples isolated from the rats according to example 4. […]
Concentrations of non-esterified free fatty acids (NEFA) were measured using a NEFA-HR (2) kit (Wako, Chemicals Gmbh). Absorbance was measured by spectrometry (PHERAstar FS, BMG LABTECH, Ortenberg, Germany).
The concentration of free-fatty acids (FFA) was determined in the blood samples isolated from the rats according to example 4, with the difference that KeLa (formula XXIV and XXV) was used. […]

SMILES	Serum concentration of Lac-Phe ([1]; rats, sampling until 180 minutes)	Serum levels of BHB ([2]; rats)	Serum levels of lactate ([2]; rats)	FFA-levels in rat serum [3]	Serum concentration of Lac-Phe ([1]; single rat)	Serum levels of BHB ([2]; single rat)	Serum levels of lactate ([2]; single rat)
C[C@H](CCOC(=O)[C@H](C)O)OC(=O)[C@H](C)O [diLaKe, (R)-butane-1,3-diyl (2S,2'S)-bis(2-hydroxypropanoate)]	increased serum concentration	increase in serum levels	increase in serum levels	decrease in FFA-levels	–	–	–
CC(=O)C(=O)OCC[C@@H](C)OC(=O)C(C)=O [diPyKe, (R)-butane-1,3-diyl bis(2-oxopropanoate)]	–	–	–	–	increased serum concentration	increase in serum levels	increase in serum levels
